One series deals with DP receptor (Homo sapiens (Human), UniProt Q13258). Kind of series: DP inhibitory activity in human platelets (PGD2-induced cAMP increase in platelet rich plasma, HTRF). The class given is cell-based. The conditions noted are these: IC50 of PGD2 (300 nM)-induced cAMP increase, read-out: PRP. In outline: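 Human citrated platelet-rich plasma pretreated 5 min with IBMX ([…]), then compound for 10 min before 300 nM PGD2; stopped after 2 min with HCl and lysed. cAMP measured by HTRF; IC50 from inhibition of PGD2-induced cAMP increase.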
Background: Time-resolved FRET reads energy transfer from a long-lived donor to a nearby acceptor.

The target of another series is CYP1A2 (Homo sapiens (Human), UniProt P05177). Kind of series: CYP inhibition test, 7-ethoxyresorufin O-deethylation. The conditions noted are these: pooled human hepatic microsome, 0.5 μmol/L ethoxyresorufin. The class given is in vitro ADME. An excerpt: (§1) Using commercially available pooled human hepatic microsome, and employing, as markers, 7-ethoxyresorufin O-deethylation (CYP1A2), tolbutamide methyl-hydroxylation (CYP2C9), mephenyloin 4′-hydroxylation (CYP2C19), dextromethorphan O-demethylation (CYP2D6), and terfenedine hydroxylation as typical substrate metabolism reactions of human main five CYP enzyme forms (CYP1A2, 2C9, 2C19, 2D6, 3A4), an inhibitory degree of each metabolite production amount by a compound of the present compound was assessed.
(§2) The reaction conditions were as follows: substrate, 0.5 μmol/L ethoxyresorufin (CYP1A2), 100 μmol/L tolbutamide (CYP2C9), 50 μmol/L S-mephenyloin (CYP2C19), 5 μmol/L dextromethorphan (CYP2D6), 1 μmol/L terfenedine (CYP3A4); reaction time, 15 minutes; reaction temperature, 37° C.; enzyme, pooled human hepatic microsome 0.2 mg protein/mL; concentration of a compound of the present invention, 1, 5, 10, 20 μmol/L (four points).
(§3) Each five kinds of substrates, human hepatic microsome, or a compound of the present invention in 50 mM Hepes buffer as a reaction mixture was added to a 96-well plate at the composition as described above, NADPH, as a cofactor was added to initiate metabolism reactions as markers and. After the incubation at 37° C. for 15 minutes, a methanol/acetonitrile=1/1 (v/v) solution was added to stop the reaction. After the centrifugation at 3000 rpm for 15 minutes, resorufin (CYP1A2 metabolite) in the supernatant was quantified by a fluorescent multilabel counter and tolbutamide hydroxide (CYP2C9 metabolite), mephenyloin 4′ hydroxide (CYP2C19 metabolite), dextrorphan (CYP2D6 metabolite), and terfenadine alcohol (CYP3A4 metabolite) were quantified by LC/MS/MS.

A further series addresses CYP2C9 (Homo sapiens (Human), UniProt P11712). Nature of the series: CYP inhibition test, tolbutamide methyl-hydroxylation. The class given is in vitro ADME. Particulars: pooled human hepatic microsome, 100 μmol/L tolbutamide.
Excerpt: as §1, §2, §3

The next series deals with CYP2D6 (Homo sapiens (Human), UniProt P10635). Nature of the series: CYP inhibition test, dextromethorphan O-demethylation. The class given is in vitro ADME. The conditions noted are these: pooled human hepatic microsome, 5 μmol/L dextromethorphan.
Excerpt: as §1, §2, §3

Series [1] concerns the target CYP3A4 enzyme expressed in Escherichia coli (Homo sapiens (Human), UniProt P08684). Kind of series: CYP3A4 fluorescent MBI test. Type of series: in vitro ADME. Particulars: pre-reaction time 0 or 30 minutes, substrate 7-BFC; read-out: CYP3A4 MBI, difference between IC50 values with and without preincubation.
The nature of series [2]: BA test (oral absorbability). Type of series: in vivo. Particulars: rat, plasma; Rats, Oral administration 1 mg/kg. Here is the method:
An experimental material and a method for examining oral absorbability • (1) Animals used: rats or mice were used. • (2) Breeding condition: chow and sterilized tap water were allowed to be taken in freely. • (3) Setting of a dosage and grouping: a predetermined dosage was administered orally or intravenously. Groups were formed as shown below. (A dosage varied depending on each compound) Oral administration 1-30 mg/kg (n=2 to 3) Intravenous administration 0.5-10 mg/kg (n=2 to 3) • (4) Preparation of administered liquid: In oral administration, a solution or suspension was administered. […] In intravenous administration, administration from the caudal vein was conducted using a syringe with an injection needle. • (6) Evaluation item: Blood was chronologically collected, and then the concentration of a compound of the present invention blood plasma was measured using a LC/MS/MS. • (7) Statistical analysis: With regard to a shift in plasma concentration, the plasma concentration-time area under the curve (AUC) was calculated using a nonlinear least-squares program WinNonlin®. Bioavailability (BA) was calculated from the AUCs of the oral administration group and the intravenous administration group, respectively. […]

This note sets out measurements from patent publication US9725442B2, “Heterocyclic derivative having PGD2 receptor antagonist activity” (Shionogi & Co., Ltd., priority 2011, dated 2017).

What is called bioavailability is the share of a dose that reaches the circulation, judged against a reference dose that is usually intravenous. A higher bioavailability goes with good availability.

Chain of CYP2D6 (P10635 whole entry): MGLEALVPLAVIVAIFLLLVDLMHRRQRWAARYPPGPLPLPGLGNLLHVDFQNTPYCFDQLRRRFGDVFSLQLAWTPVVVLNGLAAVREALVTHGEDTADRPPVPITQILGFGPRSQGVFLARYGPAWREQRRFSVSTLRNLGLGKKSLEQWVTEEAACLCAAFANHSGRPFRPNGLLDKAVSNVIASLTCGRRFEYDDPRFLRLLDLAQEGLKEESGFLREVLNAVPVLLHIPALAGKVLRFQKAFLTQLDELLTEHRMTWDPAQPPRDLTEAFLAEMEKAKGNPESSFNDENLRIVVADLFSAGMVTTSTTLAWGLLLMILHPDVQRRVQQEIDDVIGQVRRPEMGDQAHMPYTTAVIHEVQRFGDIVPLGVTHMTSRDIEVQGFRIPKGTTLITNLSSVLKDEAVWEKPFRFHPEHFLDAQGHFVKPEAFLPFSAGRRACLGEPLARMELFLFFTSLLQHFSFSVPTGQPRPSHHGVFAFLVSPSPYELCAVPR
Chain of CYP1A2 (P05177 whole entry): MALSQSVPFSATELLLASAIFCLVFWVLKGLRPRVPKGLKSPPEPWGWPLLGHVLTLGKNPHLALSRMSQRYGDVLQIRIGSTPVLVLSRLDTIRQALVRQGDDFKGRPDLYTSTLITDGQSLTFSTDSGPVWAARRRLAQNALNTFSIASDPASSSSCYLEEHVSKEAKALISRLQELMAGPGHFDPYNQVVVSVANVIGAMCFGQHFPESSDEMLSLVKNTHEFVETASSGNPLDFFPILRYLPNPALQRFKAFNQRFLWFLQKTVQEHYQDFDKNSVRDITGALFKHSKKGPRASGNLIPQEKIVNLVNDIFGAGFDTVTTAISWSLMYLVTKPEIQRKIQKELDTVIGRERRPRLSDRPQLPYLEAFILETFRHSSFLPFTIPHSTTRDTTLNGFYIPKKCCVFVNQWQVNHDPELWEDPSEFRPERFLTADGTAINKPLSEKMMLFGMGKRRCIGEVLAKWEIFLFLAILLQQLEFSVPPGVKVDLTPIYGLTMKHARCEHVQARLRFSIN
Chain of CYP2C9 (P11712 whole entry): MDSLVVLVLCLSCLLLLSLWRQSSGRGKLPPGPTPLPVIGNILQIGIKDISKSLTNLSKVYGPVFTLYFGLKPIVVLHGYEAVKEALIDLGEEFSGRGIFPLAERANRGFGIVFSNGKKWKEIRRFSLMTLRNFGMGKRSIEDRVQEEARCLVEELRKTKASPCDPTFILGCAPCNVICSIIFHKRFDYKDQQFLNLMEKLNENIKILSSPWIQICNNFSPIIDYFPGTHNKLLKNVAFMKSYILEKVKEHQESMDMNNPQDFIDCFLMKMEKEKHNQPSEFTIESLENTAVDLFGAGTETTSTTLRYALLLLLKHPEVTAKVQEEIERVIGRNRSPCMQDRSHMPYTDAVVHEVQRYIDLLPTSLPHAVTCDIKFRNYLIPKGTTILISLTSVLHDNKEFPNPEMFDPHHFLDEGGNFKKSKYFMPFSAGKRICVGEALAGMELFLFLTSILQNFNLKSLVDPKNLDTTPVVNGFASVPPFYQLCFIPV
Chain of DP receptor (Q13258 whole entry): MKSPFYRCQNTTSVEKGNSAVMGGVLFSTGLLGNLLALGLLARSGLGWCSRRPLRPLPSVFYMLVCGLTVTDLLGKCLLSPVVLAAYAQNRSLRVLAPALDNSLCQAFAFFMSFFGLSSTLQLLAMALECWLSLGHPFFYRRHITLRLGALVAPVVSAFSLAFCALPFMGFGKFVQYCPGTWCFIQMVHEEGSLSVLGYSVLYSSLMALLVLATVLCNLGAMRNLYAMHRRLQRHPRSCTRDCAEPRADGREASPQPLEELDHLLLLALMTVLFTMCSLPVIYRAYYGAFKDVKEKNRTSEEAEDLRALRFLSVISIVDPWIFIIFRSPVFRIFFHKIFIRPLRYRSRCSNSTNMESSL
Chain of CYP3A4 enzyme expressed in Escherichia coli (P08684 whole entry): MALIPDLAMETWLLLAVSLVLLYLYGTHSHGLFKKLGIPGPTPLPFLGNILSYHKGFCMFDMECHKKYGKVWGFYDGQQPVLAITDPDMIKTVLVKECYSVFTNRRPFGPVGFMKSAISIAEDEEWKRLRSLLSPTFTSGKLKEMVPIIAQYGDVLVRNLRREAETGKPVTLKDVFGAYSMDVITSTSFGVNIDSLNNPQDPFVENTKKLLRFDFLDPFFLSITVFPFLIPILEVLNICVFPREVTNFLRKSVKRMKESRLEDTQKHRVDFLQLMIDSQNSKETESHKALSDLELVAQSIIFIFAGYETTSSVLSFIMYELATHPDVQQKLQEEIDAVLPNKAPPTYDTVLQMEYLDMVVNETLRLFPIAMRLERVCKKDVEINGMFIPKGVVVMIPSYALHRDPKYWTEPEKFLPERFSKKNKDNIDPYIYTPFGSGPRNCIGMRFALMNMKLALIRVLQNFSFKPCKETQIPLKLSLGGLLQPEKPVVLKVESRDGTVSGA

For `CC(C)Oc1ccc(S(=O)(=O)N2C[C@H](n3nc(CC(=O)O)c4ccc(F)cc43)C[C@H]2C#N)cc1` [Compound I-7], the IC50 on DP receptor was 0.026 µM; against CYP1A2, greater than 20 µM; at CYP2C9, greater than 20 µM; against CYP2D6, greater than 20 µM. In addition, in series [1], the difference in IC50 with vs without preincubation is no more than 3 µM.

As for `CC(C)Oc1ccc(S(=O)(=O)N2C[C@@H](C)[C@@H](n3nc(CC(=O)O)c4ccc(F)cc43)C2)cc1` [Compound I-37], the IC50 is 0.071 µM on DP receptor, greater than 20 µM on CYP1A2, greater than 20 µM against CYP2C9 and greater than 20 µM against CYP2D6. This compound displayed a bioavailability in series [2] of 71%. The difference in IC50 with vs without preincubation in series [1] was no more than 3 µM.

Turning to `CC(C)Oc1ccc(S(=O)(=O)N2C[C@@H](C)[C@@H](n3nc(CC(=O)O)c4ccc(F)cc43)C2)c(F)c1` [Compound I-52], the IC50 against CYP1A2, on CYP2C9 and on CYP2D6 was greater than 20 µM throughout. The difference in IC50 with vs without preincubation in series [1] is no more than 3 µM.

For the compound `CC(C)Oc1ccc(S(=O)(=O)N2C[C@@H](C)[C@@H](n3nc(CC(=O)O)c4ccc(F)cc43)C2)cn1` [Compound I-57], the IC50 on CYP1A2, at CYP2C9 and against CYP2D6 was greater than 20 µM each time. Moreover, the difference in IC50 with vs without preincubation in series [1] was no more than 3 µM.

Turning to `CCOc1ccc(S(=O)(=O)N2C[C@@H](C)[C@@H](n3nc(CC(=O)O)c4ccccc43)C2)cn1` [Compound I-96], the IC50 on DP receptor is 0.068 µM; against CYP1A2 it was greater than 20 µM; on CYP2C9, greater than 20 µM; against CYP2D6 it was greater than 20 µM. The same compound registered a bioavailability in series [2] of 82%. In addition, the difference in IC50 with vs without preincubation in series [1] is no more than 3 µM.
